Series [1] in a line: Dissolution of DIM-3C for crystal soaking. It is filed as physicochemical. The settings on record: for soaking xlσ1R crystals. The source says:
Finally, it is worth mentioning another structural effort that we attempted to capture an open conformation of σ1R by soaking a ligand of extended length into the xlσ1R crystals. We anticipated that the ligand would extend through the ligand entrance and cause the receptor to adopt an open state. Such an extended ligand, N^1,N^3-bis(1-((R)-3-([1,1′-biphenyl]-4-yl)butyl)-piperidin-4-yl)malonamide (DIM-3C)[21], was kindly provided by Dr. Collina and Dr. Rossino for soaking the xlσ1R crystals. […] The density was readily and best modeled with an S1RA molecule. Its morpholine ring sits between α4 and α5 and is surrounded by residues 179, 203, and Leu97, whereas the rest of the ligand remains outside of the receptor, possibly representing an entering (or exiting) pose for the ligand. Meanwhile, due to the relatively low resolution (3.80 Å) of the xlσ1RC179/C203-S1RA structure, this extra density needs to be interpreted with caution, and we used it only for supplementary discussion.

The target in a further series is T1, xlσ1R-C179 (Xenopus laevis, UniProt Q6DCU6, L179C).
T1 construct: The gene encoding the full-length wild-type σ1R from Xenopus laevis; hemagglutinin signal peptide (N); decahistidine (His10) (N); TEV protease recognition site (N); made in house; host or cells: Pichia pastoris GS115
T1 sequence (Q6DCU6 1-221 L179C): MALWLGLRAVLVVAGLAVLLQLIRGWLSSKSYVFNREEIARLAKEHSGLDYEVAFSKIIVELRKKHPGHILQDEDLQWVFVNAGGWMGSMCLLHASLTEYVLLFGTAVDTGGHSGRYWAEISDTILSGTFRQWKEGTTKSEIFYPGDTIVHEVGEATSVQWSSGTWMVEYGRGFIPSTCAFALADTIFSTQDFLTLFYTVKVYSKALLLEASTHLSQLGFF
The series can be described thus: ITC binding of PRE084 to xlσ1R-C179 before/after mPEG-Mal-5K modification.

A further series has as its system xls1R-C179 or xls1R-C203. Description: mPEG-Mal-5K modification of xlσ1R cysteine mutants with added PRE084 (SDS-PAGE). It is filed as biochemical, Xenopus laevis. As to conditions: 1 mM PRE084 added to dialyzed protein sample before mPEG-Mal-5K treatment. The method, then: Modification of wild-type and cysteine mutants of xlσ1R was performed with a bulky thiol-modifying reagent, methoxypolyethylene glycol maleimide 5000 (mPEG-Mal-5K)[33]. Briefly, the SEC-purified xlσ1R protein in the absence of β-mercaptoethanol were incubated with 1 mM mPEG-Mal-5K at room temperature for 1 h, and the modification reaction was stopped by addition of β-mercaptoethanol to a final concentration of 10 mM before another SEC purification to remove any free mPEG-Mal-5K. For the entrance blocking experiment, the modified xlσ1R-C179 or xlσ1R-C203 proteins were subjected to ITC or SDS-PAGE analysis. For the assessment of disulfide formation in xlσ1R-C179/C203, the modified sample was analyzed by SDS-PAGE. To reduce background modification and facilitate gel analysis, the only native cysteine (Cys91) was mutated to serine in all samples for the disulfide analysis. […]
would affect the modification efficiency (Response Fig. 1). However, extensive dialysis of the […]
1 to lane 5 for C179, and lane 3 to la ne 7 f o r C2 03). […]
modification efficiency (compare lane 1 to lane 2 for C179, and lane 3 to lane 4 for C203).
Therefore, it seems less likely that the ligand binding hindered mPEG -Ma l-5K modification. […]
before mPEG-Ma l-5K treatment were indicated above the gel. Protein samples were analyzed by SDS-PAGE and Coomassie blue staining. […]

A further series has as its target T2, xlσ1R-C203 (Xenopus laevis, UniProt Q6DCU6, Y203C).
T2 construct: The gene encoding the full-length wild-type σ1R from Xenopus laevis; hemagglutinin signal peptide (N); decahistidine (His10) (N); TEV protease recognition site (N); made in house; host or cells: Pichia pastoris GS115
T2 sequence (Q6DCU6 1-221 Y203C): T1 sequence (Q6DCU6 1-221 L179C) with C179L, Y203C
The series can be described thus: ITC binding of PRE084 to xlσ1R-C203 before/after mPEG-Mal-5K modification.

For another series, the target named is T3, wild-type xlσ1R (Xenopus laevis, UniProt Q6DCU6).
T3 construct: The gene encoding the full-length wild-type σ1R from Xenopus laevis; hemagglutinin signal peptide (N); decahistidine (His10) (N); TEV protease recognition site (N); made in house; host or cells: Pichia pastoris GS115
T3 sequence (Q6DCU6 1-221): T1 sequence (Q6DCU6 1-221 L179C) with C179L
Description: ITC binding of PRE084 to wild-type xlσ1R before/after mPEG-Mal-5K modification. As to conditions: for WT stoichiometry, After modification: mPEG-Mal-5K; for Kd: WT Kd.

In a further series the target is T4, xlσ1R-C179/C203 (Xenopus laevis, UniProt Q6DCU6, L179C/Y203C).
T4 construct: The gene encoding the full-length wild-type σ1R from Xenopus laevis; hemagglutinin signal peptide (N); decahistidine (His10) (N); TEV protease recognition site (N); made in house; host or cells: Pichia pastoris GS115
T4 sequence (Q6DCU6 1-221 L179C/Y203C): T1 sequence (Q6DCU6 1-221 L179C) with Y203C
Description: ITC binding of PRE084 to xlσ1R-C179/C203 (disulfide oxidation / re-reduction).

The next series concerns the target T5, wild-type xls1R (Xenopus laevis, UniProt Q6DCU6).
T5 construct: The gene encoding the full-length wild-type σ1R from Xenopus laevis; hemagglutinin signal peptide (N); decahistidine (His10) (N); TEV protease recognition site (N); made in house; host or cells: Pichia pastoris GS115
T5 sequence (Q6DCU6 1-221): T1 sequence (Q6DCU6 1-221 L179C) with C179L
The series can be described thus: Resistance of wild-type xlσ1R to chymotrypsin with added PRE084 (SDS-PAGE). It is filed as biochemical. As to conditions: 1 mM PRE084 added to dialyzed protein before chymotrypsin treatment.

Setting [2] is: equilibrium dissociation constant (Kd).
Where [3] appears, read: ITC, Mean of repeats (source data Fig. 4e).
[4] abbreviates: ITC, individual repeats (source data Fig. 4e).

Numbering of substitutions follows the chain as printed. Where “and” joins values, the source holds several entries; their conditions need not be identical. Equal entries are not always repeated.

The text below walks through data of paper PMC8913746, “An open-like conformation of the sigma-1 receptor reveals its ligand entry pathway” (Nature Communications, 2022).

`C[C@H](CCN1CCC(NC(=O)CC(=O)NC2CCN(CC[C@@H](C)c3ccc(-c4ccccc4)cc3)CC2)CC1)c1ccc(-c2ccccc2)cc1` [DIM-3C, N^1,N^3-bis(1-((R)-3-([1,1′-biphenyl]-4-yl)butyl)-piperidin-4-yl)malonamide]: in series [1], the solubility entry was “could only be dissolved with organic solvents such as methanol and dimethyl sulfoxide”.
With `O=C(OCCN1CCOCC1)C1(c2ccccc2)CCCCC1` [PRE084, [2-(morpholin-4-yl)ethyl] 1-phenylcyclohexane-1-carboxylate], the Kd at xlσ1R-C179 (C179 Kd, After modification) was 1.91 µM and 2.01 µM and 1.93 µM and 1.97 µM; at xlσ1R-C179 (C179 Kd, Before modification) it was 0.972 µM and 0.99 µM and 1.09 µM and 1.04 µM; at xlσ1R-C179 (setting [2]), 1.02 µM and 1.95 µM; on xlσ1R-C203 (C203 Kd, After modification) it was 1.5 µM and 1.73 µM and 1.62 µM; on xlσ1R-C203 (C203 Kd, Before modification) it was 0.971 µM and 0.977 µM and 1.03 µM; at xlσ1R-C203 (setting [2]), 1.61 µM and 0.99 µM. Moreover, the Kd at wild-type xlσ1R (After modification) was 1.22 µM and 1.29 µM and 1.23 µM and 1.08 µM (2×) and 1.12 µM; at wild-type xlσ1R (Before modification) it was 1.12 µM and 1.21 µM and 0.871 µM and 1.1 µM; at xlσ1R-C179/C203 (C179/C203 Kd, After oxidation), 7.81 µM and 5.08 µM and 7.24 µM; at xlσ1R-C179/C203 (C179/C203 Kd, Before oxidation), 0.96 µM and 0.71 µM and 0.38 µM and 0.51 µM and 0.85 µM; on xlσ1R-C179/C203 (C179/C203 Kd, Re-reduction), 1.76 µM and 1.39 µM and 1.45 µM and 1.57 µM; at xlσ1R-C179/C203 (setting [2]) it was 0.68 µM and 6.71 µM and 1.54 µM. Moreover, in the series on xls1R-C179 or xls1R-C203, the “effect of added ligand on mPEG-Mal-5K modification efficiency” value is on record as “no appreciable effect”. Further, the “C203 stoichiometry, Before modification” value at xlσ1R-C203 (setting [3]) worked out at 0.8717. In addition, at wild-type xlσ1R, the “change of affinity (Kd) after mPEG-Mal-5K treatment” value is reported as “changed little”. Also, the “WT stoichiometry, Before modification” value is 0.8695 on wild-type xlσ1R (setting [3]); 0.883 and 0.874 and 0.993 and 0.728 on wild-type xlσ1R (setting [4]). Further, the “WT stoichiometry, After modification” value was 0.9143 at wild-type xlσ1R (setting [3]); 0.933 and 0.896 and 0.874 and 1.040 and 0.883 and 0.860 at wild-type xlσ1R (setting [4]). Further, the “change of stoichiometry (number of available binding sites per protomer) after mPEG-Mal-5K treatment” value at wild-type xlσ1R (ITC, modification of native Cys91) was “changed little”. Besides, the “effect of added ligand on chymotrypsin digestion” value on wild-type xls1R is listed as “no appreciable effect”.

The Kd is the equilibrium constant for the complex coming apart.
